The source of these data is PMC12662848 (Cancer Chemotherapy and Pharmacology, 2025).

The nature of series [1]: Enzalutamide and N-desmethyl enzalutamide trough plasma PK (LC–MS/MS). The settings on record: for ENZAdm Cmin D1: 24 h sample relative to Cmin D0; for ENZAdm Cmin D1 / ENZAdm Cmin D0: geometric mean (geometric SD); for ENZAdm Cmin D0: pre 1st venetoclax sample on day 1. As for the experimental part: Additional samples were collected prior to dosing on days 8, 15, 21, and 57 (Fig. 1A). Samples were centrifuged at approximately 1,000 × g, and plasma was stored at −70 °C or colder until analysis.
Plasma PK parameters were derived from the data by non-compartmental methods with WinNonlin (Certara, Princeton, NJ). Statistical analyses for PK parameter values were performed using SPSS 27.0 for Windows (SPSS Inc., Chicago, IL). Within patient variability in Cmin was calculated from the day 8 through day 57 data across doses by calculating 100 × the square root of the mean square within groups obtained after ANOVA of log-transformed values of these parameters with subject as a factor.

The subject of series [2] is AR−/lo LAPC9-CRPC. Also on record: method as in PMID 30190514. Particulars: single agent; cited from earlier work.
In series [3] the test system is CYP3A4. The settings on record: a sensitive CYP3A4 substrate; cited from earlier work.
The conditions of series [4]: cited from earlier work.

As to `CNC(=O)c1ccc(N2C(=S)N(c3ccc(C#N)c(C(F)(F)F)c3)C(=O)C2(C)C)cc1F` [enzalutamide], the “Intrapatient variability in Cmin” value in series [1] (male, human, in vivo) was determined as 7.0 %CV. In addition, in series [1] (male, human, in vivo, 24 h), the “ENZA Cmin D1” value is 12.4 (1.19) µg/mL. Further, the “Growth of AR−/lo LAPC9-CRPC” value in series [2] is given as “not”. The “Increase in oral clearance of midazolam” value in series [3] is “sevenfold”. The “Enzalutamide concentration in previous reports” value in series [4] is 11.4 µg/L.

As to `CC1(C)C(=O)N(c2ccc(C#N)c(C(F)(F)F)c2)C(=S)N1c1ccc(C(N)=O)c(F)c1` [N-desmethyl enzalutamide], the “Intrapatient variability in Cmin” value in series [1] (N-desmethyl enzalutamide, from day 1 through 57) came to 10 %CV. For the same compound, the “ENZAdm Cmin D1” value in series [1] (venetoclax 400 mg (N=3)) is recorded as 7.59 (1.34) µg/mL; in series [1] (venetoclax 600 mg (N=3)), 15.1 (1.12) µg/mL; in series [1] (venetoclax 800 mg (N=4)) it was 14.2 (1.21) µg/mL. Besides, the figures for the “ENZAdm Cmin D0” value in series [1] (venetoclax 400 mg (N=3)) and in series [1] (venetoclax 600 mg (N=3)) were 7.04 (1.31) µg/mL and 15.2 (1.07) µg/mL, respectively. In addition, the “N-desmethyl enzalutamide concentration in previous reports” value in series [4] was 13 µg/L.
